Key:
[1] = system: AM microtissues; assay: Effect of ROCK inhibitor on AM cyst formation; type: cell-based, human; conditions: 10 μM
[2] = system: AM microtissues
[3] = day 0 to day 3, control: Y27632 removed at day 1

Row | SMILES | cyst morphology ([1]; day 0 to day 3) | lumens per cyst (EZRIN immunostaining) ([1]; day 0 to day 3, control has a single central lumen) | average normalized nuclear intensity of GATA3 vs untreated control [1, 3] | average normalized nuclear intensity of TFAP2A vs untreated control [1, 3] | average normalized nuclear intensity of TFAP2B vs untreated control [1, 3] | toxicity on the AM development (dose-response, in words) [2]
1 | C[C@@H](N)[C@H]1CC[C@H](C(=O)Nc2ccncc2)CC1 [Y27632] | flattened and collapsed morphology without a visible single, central lumen | multiple EZRIN+ lumens | no significant differences | no significant differences | no significant differences | 
2 | COc1cccc2c1C(=O)c1c(O)c3c(c(O)c1C2=O)C[C@@](O)(C(=O)CO)C[C@@H]3O[C@H]1C[C@H](N)[C@H](O)[C@H](C)O1 [Doxorubicin] |  |  |  |  |  | induces massive cell death shortly after treatment

Source: publication PMC6658735 (Biomaterials, 2019)
